The values below are quoted from earlier work in patent US20180311203A1, “LIQUID FORMULATION OF CABAZITAXEL” (EMCURE PHARMACEUTICALS LIMITED, priority 2015, published 2018).

With `CO[C@H]1C(=O)[C@]2(C)[C@@H](OC)C[C@H]3OC[C@@]3(OC(C)=O)[C@H]2[C@H](OC(=O)c2ccccc2)[C@]2(O)C[C@H](OC(=O)[C@H](O)[C@@H](NC(=O)OC(C)(C)C)c3ccccc3)C(C)=C1C2(C)C` [cabazitaxel, (2α,5β,7β, 10β,13a)-4-acetoxy-13-({(2R,3S)-3 [(tertbutoxycarbonyl)amino]-2-hydroxy-3-phenylpropanoyl}oxy)-1-hydroxy-7,10-dimethoxy-9-oxo-5,20-epoxytax-11-en-2-yl benzoate], the solubility in water result is “about 8 pg per mL”.
